In paper PMC4240915, “Insights into the posttranslational assembly of the Mo-, S- and Cu-containing cluster in the active site of CO dehydrogenase of Oligotropha carboxidovorans” (Journal of Biological Inorganic Chemistry, 2014):
Values belong to the compound of their own block, whether it stands above or below them.

Legend:
[1] = target: T1, CO dehydrogenase (FAD site on CoxM) (Afipia carboxidovorans, UniProt P19920); test: spectrophotometric FAD determination at […] nm after trichloroacetic acid precipitation; assay type: binding; conditions: wild-type enzyme from CO-grown cells; co-purified cofactor
T1 construct: native enzyme purified from wild-type O. carboxidovorans OM5; same complex as P1, as isolated with [CuSMoO2] cluster; with Carbon monoxide dehydrogenase large chain; Carbon monoxide dehydrogenase small chain
T1 sequence (P19920 1-288): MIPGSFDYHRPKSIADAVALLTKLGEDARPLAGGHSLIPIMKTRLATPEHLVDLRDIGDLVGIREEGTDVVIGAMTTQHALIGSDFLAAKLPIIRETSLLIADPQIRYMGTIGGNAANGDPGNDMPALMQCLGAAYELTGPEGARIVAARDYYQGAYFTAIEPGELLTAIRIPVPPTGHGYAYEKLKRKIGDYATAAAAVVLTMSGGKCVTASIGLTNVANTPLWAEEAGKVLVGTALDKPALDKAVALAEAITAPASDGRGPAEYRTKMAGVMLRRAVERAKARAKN
T1 sequence (P19919 1-809 partner): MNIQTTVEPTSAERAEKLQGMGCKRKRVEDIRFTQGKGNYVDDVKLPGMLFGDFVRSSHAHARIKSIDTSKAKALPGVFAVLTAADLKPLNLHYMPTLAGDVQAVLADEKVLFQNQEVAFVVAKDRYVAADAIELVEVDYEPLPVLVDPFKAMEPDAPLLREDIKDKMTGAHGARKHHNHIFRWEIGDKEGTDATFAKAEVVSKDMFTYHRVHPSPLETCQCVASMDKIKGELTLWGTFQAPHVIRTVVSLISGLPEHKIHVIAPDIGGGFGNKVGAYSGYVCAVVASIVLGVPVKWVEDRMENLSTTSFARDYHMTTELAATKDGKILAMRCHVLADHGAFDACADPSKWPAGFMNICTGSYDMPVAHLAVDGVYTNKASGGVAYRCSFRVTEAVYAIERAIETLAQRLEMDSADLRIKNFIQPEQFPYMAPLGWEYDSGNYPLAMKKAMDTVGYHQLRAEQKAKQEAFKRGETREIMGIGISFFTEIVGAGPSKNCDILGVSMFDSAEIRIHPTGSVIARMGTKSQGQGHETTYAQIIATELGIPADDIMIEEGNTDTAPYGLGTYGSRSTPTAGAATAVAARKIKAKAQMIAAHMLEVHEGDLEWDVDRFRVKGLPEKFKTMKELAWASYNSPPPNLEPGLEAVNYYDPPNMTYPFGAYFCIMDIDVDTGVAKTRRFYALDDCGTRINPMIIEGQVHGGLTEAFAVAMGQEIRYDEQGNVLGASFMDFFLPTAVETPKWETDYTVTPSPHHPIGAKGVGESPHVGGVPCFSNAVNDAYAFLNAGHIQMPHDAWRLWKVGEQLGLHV
T1 sequence (P19921 1-166 partner): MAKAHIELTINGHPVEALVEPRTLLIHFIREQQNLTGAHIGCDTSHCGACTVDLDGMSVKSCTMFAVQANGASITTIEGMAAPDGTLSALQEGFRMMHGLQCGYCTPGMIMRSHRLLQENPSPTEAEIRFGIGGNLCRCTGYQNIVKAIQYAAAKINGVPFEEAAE

[2] = target: T2, CO dehydrogenase (molybdenum site on CoxL) (Afipia carboxidovorans, UniProt P19919); test: Mo(V) EPR at […] K; assay type: binding; conditions: 15 mM ligand, 50 mM HEPES pH 7.2, N2, 25 min room temperature; resulfurated copper-free [MoO2S] enzyme; covalent (mixed disulfide at Mo-bound sulfur)
T2 construct: native enzyme purified from O. carboxidovorans OM5; Mo-, Fe-S- and FAD-containing; Cu and sulfane sulfur removed by KCN, then resulfurated to the [MoO2S] form (copper-free); with Carbon monoxide dehydrogenase medium chain; Carbon monoxide dehydrogenase small chain
T2 sequence (P19919 1-809): T1 sequence (P19919 1-809 partner)
T2 sequence (P19921 1-166 partner): T1 sequence (P19921 1-166 partner)
T2 sequence (P19920 1-288 partner): T1 sequence (P19920 1-288)

[3] = target: T1, CO dehydrogenase (FAD site on CoxM); test: photometric assay of CO oxidation with INT as electron acceptor; assay type: biochemical; conditions: electron acceptor with CO as electron donor, 30 °C; acceptor site (FAD) not shown in the paper

Wild type (CO) [1]: 1.93 ± 0.08 mol per mol
Structure (SMILES): Cc1cc2nc3c(=O)[nH]c(=O)nc-3n(C[C@H](O)[C@H](O)[C@H](O)COP(=O)(O)OP(=O)(O)OC[C@H]3O[C@@H](n4cnc5c(N)ncnc54)[C@H](O)[C@@H]3O)c2cc1C [FAD]

Structure (SMILES): N[C@@H](CS)C(=O)O [L-cysteine]
Mo(V) EPR at 120 K [2]: SH group of the studied sulfur compounds can bind to the equatorial sulfur of [MoO2S]

Structure (SMILES): O=[N+]([O-])c1ccc(-[n+]2nc(-c3ccccc3)nn2-c2ccc(I)cc2)cc1 [INT, 1-phenyl-2-(4-iodo-phenyl)-3-(4-nitrophenyl)-2H-tetrazolium chloride]
photometric assay of CO oxidation with INT as electron acceptor [3]: CO-oxidizing activity was assayed photometrically employing INT
